Measurements published in article PMC6511888, “Synthesis, Biological Evaluation, and Molecular Modeling Studies of New Thiadiazole Derivatives as Potent P2X7 Receptor Inhibitors” (Frontiers in Chemistry, 2019).

Tests used:
P2X7R = biological target: T1, P2X7R (Mus musculus, UniProt Q9Z1M0); experiment: Dye uptake assay (propidium iodide) in mouse peritoneal macrophages; type: cell-based; settings: mean ± SD
T1 construct: plated for 24 h before dye uptake assays, whole-cell patch clamp experiments, and IL-1β release assays; endogenous in cells; host or cells: mouse (Swiss Webster) peritoneal macrophages
T1 sequence (Q9Z1M0 1-595): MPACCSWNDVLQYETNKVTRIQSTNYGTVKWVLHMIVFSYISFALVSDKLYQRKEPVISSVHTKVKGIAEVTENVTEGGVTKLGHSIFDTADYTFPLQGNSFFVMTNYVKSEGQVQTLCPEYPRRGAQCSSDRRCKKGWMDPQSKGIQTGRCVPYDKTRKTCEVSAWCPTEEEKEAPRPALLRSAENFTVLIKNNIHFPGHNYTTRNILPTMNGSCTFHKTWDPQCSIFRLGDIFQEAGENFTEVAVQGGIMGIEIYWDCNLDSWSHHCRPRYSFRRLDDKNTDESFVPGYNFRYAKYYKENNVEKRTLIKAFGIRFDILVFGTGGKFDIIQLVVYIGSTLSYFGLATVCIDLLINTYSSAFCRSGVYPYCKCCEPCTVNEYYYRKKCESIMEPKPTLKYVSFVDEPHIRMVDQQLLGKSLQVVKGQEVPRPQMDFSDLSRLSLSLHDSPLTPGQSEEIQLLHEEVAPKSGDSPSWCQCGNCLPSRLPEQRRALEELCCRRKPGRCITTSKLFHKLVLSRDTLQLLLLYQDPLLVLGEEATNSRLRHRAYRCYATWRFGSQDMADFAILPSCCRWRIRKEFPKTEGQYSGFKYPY
Procedure: Our protocols adhered to the Ethical Principles in Animal Experimentation adopted by the Brazilian College of Animal Experimentation and approved by the FIOCRUZ Research Ethics Committee (Faria et al., [2005]; number L039- 2016). Male mouse (Swiss Webster) peritoneal macrophages were collected from peritoneal cavity lavage and plated for 24 h before dye uptake assays, whole-cell patch clamp experiments, and IL-1β release assays.
(§1) HEK-293 cells transfected with hP2X7R and mouse peritoneal macrophages were plated at 2.5 × 10^6 or 5 × 10^5 cells/ml, respectively, in 96-well culture plates containing DMEM with 10% FBS and anti-biotics (50 U/ml penicillin and […] streptomycin) in a humidified 5% CO2 atmosphere at 37°C for 24 h (Faria et al., [2018]).
[…] In the last 5 min of ATP incubation, propidium iodide for macrophages (PI; 750 nM) or ethidium bromide (EB; 25 μM) for HEK-293 cells was added to all wells. PI dye was excited at a wavelength of 530 nm, and its fluorescence emission was read at a wavelength of 590 nm using an M5 plate reader (Molecular Devices). EB dye was excited at a wavelength of 530 nm and emitted at a wavelength of 620 nm.

[1] = LDH release assay (toxicity); type: cell-based, mouse; settings: mouse peritoneal macrophages; 24 h; read-out: Macrophages IC50 (toxic effect)
Procedure: (§2) Mouse peritoneal macrophages (5 × 10^5 cells) and HEK-293 cells transfected with P2X7R (5 × 10^5 cells) were plated in a 96-well-plate for 24 h before the treatment. […] The supernatant collected in this assay was used to measure the presence of LDH in the media using a cytotoxicity detection kit (Sigma kit for LDH) according to the manufacturer's instructions (Faria et al., [2018]).

[2] = system: mouse peritoneal macrophages; experiment: LDH release assay (toxicity); type: cell-based; settings: relative to maximum LDH release caused by 0.05% Triton X-100, mean ± SD
Procedure: as §2

[3] = system: P2X7R-mediated IL-1β release; experiment: ATP-induced IL-1β release (ELISA) in differentiated THP-1 cells; type: cell-based, human; settings: ATP-induced IL-1β release; LPS/IFN-differentiated human THP-1 cells; read-out: THP-1 cells IC50
Procedure: P2X7R-mediated IL-1β release was obtained from differentiated THP-1 cells stimulated with lipopolysaccharide (LPS) before ATP addition. […] THP-1 cells were differentiated with 500 ng/ml phorbol 12-myristate 13-acetate (PMA) and 10 ng/ml IFN-γ cotreatment for 24 h. These cells were activated with 25 ng/ml LPS for 4 h. […] P2X7R antagonists (BBG and A740003) and thiadiazole analogs were added 30 min before the ATP stimulus. The supernatants were collected, centrifuged (1,000 rpm for 5 min at 4°C), and stored at −70°C after LPS incubation. IL-1β was quantified using a standard kit (ABCAM, Cambridge).

human P2X7R = biological target: T2, human P2X7R (Homo sapiens, UniProt Q99572); experiment: Dye uptake assay (ethidium bromide) in HEK-293 cells transfected with hP2X7R; type: cell-based; settings: ethidium uptake assay; HEK-293 cells transfected with human P2X7R; mean ± SD
T2 construct: expressed in transfected cells; host or cells: HEK-293
T2 sequence (Q99572 1-595): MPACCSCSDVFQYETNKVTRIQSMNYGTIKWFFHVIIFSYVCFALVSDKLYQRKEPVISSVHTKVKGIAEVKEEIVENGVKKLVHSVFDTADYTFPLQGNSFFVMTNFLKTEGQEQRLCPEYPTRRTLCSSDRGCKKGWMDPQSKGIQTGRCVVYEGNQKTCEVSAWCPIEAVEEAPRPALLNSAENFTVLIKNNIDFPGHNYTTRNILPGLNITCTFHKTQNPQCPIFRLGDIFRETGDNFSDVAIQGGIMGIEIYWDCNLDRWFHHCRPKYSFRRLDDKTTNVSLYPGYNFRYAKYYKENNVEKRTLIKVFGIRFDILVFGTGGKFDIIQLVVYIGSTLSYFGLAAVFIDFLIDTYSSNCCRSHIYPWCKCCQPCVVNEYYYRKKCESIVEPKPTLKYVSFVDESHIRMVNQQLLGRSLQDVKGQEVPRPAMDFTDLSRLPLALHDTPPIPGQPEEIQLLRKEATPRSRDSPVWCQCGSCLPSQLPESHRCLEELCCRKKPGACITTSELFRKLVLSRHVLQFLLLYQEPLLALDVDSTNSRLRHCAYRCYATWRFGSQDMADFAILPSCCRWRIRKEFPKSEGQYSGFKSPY
Procedure: HEK-293 cells expressing human P2X7R were maintained in Dulbecco's modified Eagle's medium (DMEM; Sigma-Aldrich) supplemented with 10% fetal bovine serum (FBS; Prolab, Br) and anti-biotics (50 U/ml penicillin and […] streptomycin) in a humidified 5% CO2 atmosphere at 37°C (Faria et al., [2018]). A total of 5 × 10^5 cells were plated at 37°C in a humidified 5% CO2 atmosphere for 24 h in a 96-well plate for dye uptake or IL-1β release assays.
as §1
P2X7R antagonist and thiadiazole analogs (1 nM to 0.5 mM) were incubated for 5 min before ATP (5 mM) treatment for 20 min. In the last 5 min of ATP incubation, propidium iodide for macrophages (PI; 750 nM) or ethidium bromide (EB; 25 μM) for HEK-293 cells was added to all wells. PI dye was excited at a wavelength of 530 nm, and its fluorescence emission was read at a wavelength of 590 nm using an M5 plate reader (Molecular Devices). EB dye was excited at a wavelength of 530 nm and emitted at a wavelength of 620 nm.

P2Y13R = biological target: T3, P2Y13R (Homo sapiens, UniProt Q9BPV8); experiment: ADPβS-induced [Ca2+]i shifts in HEP2G cells; type: cell-based; settings: 1 μM
T3 construct: endogenous in cells; host or cells: HEP2G (HEPG2) cells
T3 sequence (Q9BPV8 1-354): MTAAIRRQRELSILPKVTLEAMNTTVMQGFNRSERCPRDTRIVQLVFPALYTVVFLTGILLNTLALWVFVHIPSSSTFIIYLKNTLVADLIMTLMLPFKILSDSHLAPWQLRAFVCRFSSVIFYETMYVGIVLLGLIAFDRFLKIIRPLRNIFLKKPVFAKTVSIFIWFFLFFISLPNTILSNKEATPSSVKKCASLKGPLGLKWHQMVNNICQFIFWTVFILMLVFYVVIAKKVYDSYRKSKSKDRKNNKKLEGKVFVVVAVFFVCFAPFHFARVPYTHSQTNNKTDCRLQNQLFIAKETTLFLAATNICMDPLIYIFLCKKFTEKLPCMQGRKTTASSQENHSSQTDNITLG
Procedure: (§3) Mouse peritoneal macrophages, PC12 cells, J774 cells, and HEPG2 cells were analyzed by fluorescence microscopy to measure the intracellular Ca^2+ concentrations ([Ca^2+]i). Cells were incubated with 2 μM Fura-2-AM (Molecular Probes) for 30 min, and the [Ca^2+]i mobilization was measured in the F340/F380 ratios with a FlexStation 3 multimode microplate reader (Molecular Devices). Cells were plated in translucent 96-well plates (BD Falcon) for 15 min and then washed and incubated in a saline solution with 150 NaCl, 5 KCl, 1 MgCl2, 1 CaCl2, and 10 HEPES (pH 7.4) for 30 min before measurements of [Ca^2+]i. The Ca^2+ influx was induced by stimulating cells with P2 receptor agonists. P2 receptor antagonists were added 10 min before P2 receptor agonist addition. […] Ionomycin was considered a positive control, and the other recordings were normalized in relation to the AUC.

P2Y4R = biological target: T4, P2Y4R (Mus musculus, UniProt Q9JJS7); experiment: MRS4062-induced [Ca2+]i shifts in mice peritoneal macrophages; type: cell-based; settings: 1 μM
T4 construct: endogenous in cells; host or cells: mouse peritoneal macrophages
T4 sequence (Q9JJS7 whole entry): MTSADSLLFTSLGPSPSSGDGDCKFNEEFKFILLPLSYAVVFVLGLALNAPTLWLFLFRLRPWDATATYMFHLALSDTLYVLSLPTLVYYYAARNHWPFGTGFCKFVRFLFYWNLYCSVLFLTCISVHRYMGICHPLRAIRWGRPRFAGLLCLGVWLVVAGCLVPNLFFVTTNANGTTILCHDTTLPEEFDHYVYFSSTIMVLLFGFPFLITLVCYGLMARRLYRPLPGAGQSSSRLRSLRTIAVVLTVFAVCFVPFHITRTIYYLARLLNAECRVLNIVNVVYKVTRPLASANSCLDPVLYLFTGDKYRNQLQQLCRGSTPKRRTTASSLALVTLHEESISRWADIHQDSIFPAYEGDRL
Procedure: as §3

P2Y11R = experiment: NAADP-induced [Ca2+]i shifts in mouse peritoneal macrophages; type: cell-based; settings: 1 μM
Procedure: as §3

P2Y12R = biological target: T5, P2Y12R (Mus musculus, UniProt Q9CPV9); experiment: 2MeSADP-activated [Ca2+]i shifts in mouse peritoneal macrophages; type: cell-based; settings: 1 μM
T5 construct: endogenous in cells; host or cells: mouse peritoneal macrophages
T5 sequence (Q9CPV9 whole entry): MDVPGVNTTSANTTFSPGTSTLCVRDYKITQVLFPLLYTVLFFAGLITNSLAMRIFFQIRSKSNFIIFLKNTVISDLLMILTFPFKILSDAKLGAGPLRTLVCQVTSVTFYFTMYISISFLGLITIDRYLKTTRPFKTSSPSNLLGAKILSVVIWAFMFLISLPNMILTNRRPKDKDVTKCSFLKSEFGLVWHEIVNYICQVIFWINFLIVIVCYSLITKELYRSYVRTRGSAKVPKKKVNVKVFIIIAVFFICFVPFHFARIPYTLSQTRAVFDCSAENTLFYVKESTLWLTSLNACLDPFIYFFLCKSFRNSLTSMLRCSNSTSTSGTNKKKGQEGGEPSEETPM

[4] = percentage relative to the maximum uptake of propidium stimulated by 1 mM ATP only

Row | SMILES | inhibition at 10 µM (P2X7R; [4]) [%] | % LDH release ([2]; 10 μM, cell type not given) [%] | melting point [°C] | further results
1 | CCOc1ccc(Nc2ccc(/C(=C3C=C/C(=[N+](/CC)Cc4cccc(S(=O)(=O)[O-])c4)C=C/3C)c3ccc(N(CC)Cc4cccc(S(=O)(=O)O)c4)cc3C)cc2)cc1 [BBG, Brilliant Blue G, reference compound] |  |  |  | inhibition at 0.75 µM (P2X7R; BBG 750 nM, percentage relative to the maximum uptake of propidium stimulated by 1 mM ATP only): 78.8 ± 3.8%; IC50 (P2X7R; propidium uptake assay, mice peritoneal macrophages): 1200 ± 100 nM; IC50 at 24 h [1]: 87000 ± 1000 nM; % LDH release ([2]; BBG 750 nM): 13.2 ± 2.6%; IC50 [3]: 1900 ± 300 nM; IC50 (human P2X7R): 589 ± 12 nM
2 | N#Cc1cnn(-c2nnc(-c3ccccc3)s2)c1N [Compound 9a] | 89.2 ± 2.2 | 58.1 ± 4.8 | 234 to 235 | 
3 | N#Cc1cnn(-c2nnc(-c3ccc(Cl)cc3)s2)c1N [Compound 9d] | 62.2 ± 4.02 | 46.3 ± 5.12 | > 300 | 
4 | CCOC(=O)c1cnn(-c2nnc(-c3ccccc3)s2)c1N [Compound 9e] | 90.2 ± 0.4 | 36.3 ± 11.0 | 165 to 167 | 
5 | CCOC(=O)c1cnn(-c2nnc(-c3ccc(F)cc3)s2)c1N [Compound 9g] | 90.8 ± 1.1 | 22.6 ± 0.3 | 250 to 251 | 
6 | CCOC(=O)c1cnn(-c2nnc(-c3ccc(Cl)cc3)s2)c1N [Compound 9h] | 64 ± 3.7 | 15 ± 1.9 | 252 to 253 | 
7 | Cc1cc(C)n(-c2nnc(-c3ccccc3)s2)n1 [Compound 11a] | 92.5 ± 0.3 | 34.1 ± 2 | 170 to 171 | 
8 | Cc1cc(C)n(-c2nnc(-c3ccccc3Cl)s2)n1 [Compound 11b] | 89.7 ± 2.6 | 45.7 ± 1.7 | 163 to 165 | 
9 | Cc1cc(C)n(-c2nnc(-c3ccc(Cl)cc3)s2)n1 [Compound 11d] | 69.8 ± 0.7 | 36.94 ± 10.6 | 202 to 203 | 
10 | CC1(O)CC(C(F)(F)F)=NN1c1nnc(-c2ccccc2)s1 (stereo not drawn) [Compound 13a] | 90.5 ± 1.4 | 8 ± 0.6 | 183 to 185 | 
11 | CC1(O)CC(C(F)(F)F)=NN1c1nnc(-c2ccccc2Cl)s1 (stereo not drawn) [Compound 13b] | 90.7 ± 1.6 | 19.6 ± 0.6 |  | 
12 | CC1(O)CC(C(F)(F)F)=NN1c1nnc(-c2ccc(F)cc2)s1 (stereo not drawn) [Compound 13c] | 92 ± 0.4 | 45.3 ± 1.4 | 182 to 183 | 
13 | CC1(O)CC(C(F)(F)F)=NN1c1nnc(-c2ccc(Cl)cc2)s1 (stereo not drawn) [Compound 13d] | 71 ± 0.2 | 38.5 ± 6.2 | 184 to 185 | 
14 | Cc1cc(C(F)(F)F)nn1-c1nnc(-c2ccccc2)s1 [Compound 14a] | 91 ± 1 | 32 ± 1 | 163 to 164 | 
15 | Cc1cc(C(F)(F)F)nn1-c1nnc(-c2ccccc2Cl)s1 [Compound 14b] | 92 ± 2 | 26.6 ± 1.2 | 139 to 140 | 
16 | Cc1cc(C(F)(F)F)nn1-c1nnc(-c2ccc(F)cc2)s1 [Compound 14c] | 92.5 ± 0.4 | 10.6 ± 0.5 | 149 to 150 | 
17 | Cc1cc(C(F)(F)F)nn1-c1nnc(-c2ccc(Cl)cc2)s1 [Compound 14d] | 54.7 ± 0.5 | 43 ± 5 | 147 to 148 | 
18 | Cc1nc(N=Nc2cc([N+](=O)[O-])ccc2Cl)c(COP(=O)(O)O)c(C=O)c1O [MRS2211] |  |  |  | Effect on ADPβS-induced [Ca2+]i shifts (P2Y13R): inhibited
19 | S=C=Nc1cccc(NC(=S)NCCCCNC(=S)Nc2cccc(N=C=S)c2)c1 [MRS2578] |  |  |  | Effect on MRS4062-induced [Ca2+]i shifts (P2Y4R): inhibited
20 | Cc1ccc(C(=O)Nc2cc(S(=O)(=O)O)cc3ccc(S(=O)(=O)O)cc23)cc1NC(=O)Nc1cc(C(=O)Nc2cc(S(=O)(=O)O)cc3ccc(S(=O)(=O)O)cc23)ccc1C [NF340] |  |  |  | Effect on NAADP-induced [Ca2+]i shifts (P2Y11R): inhibited
21 | CCCSc1nc(N[C@@H]2C[C@H]2c2ccc(F)c(F)c2)c2nnn([C@@H]3C[C@H](OCCO)[C@@H](O)[C@H]3O)c2n1 [Ticagrelor] |  |  |  | Effect on 2MeSADP-activated [Ca2+]i shifts (P2Y12R): inhibited
